How the values were obtained:
[1] = cited from earlier work
[2] = system: LPS-induced macrophage activation; experiment: PGE2-mediated protection against LPS-induced macrophage activation; format: cell-based
[3] = system: oxLDL-induced Il1b and Mmp9 expression in BMDMs; experiment: Real-time PCR of oxLDL-induced pro-inflammatory genes in BMDMs; format: cell-based, mouse; conditions: BMDMs, vs control
Procedure: (§1) FIG. 3. NO2—OA prevents oxLDL-induced NFκB activation and pro-inflammatory cytokine production. Primary BMDMs were pretreated with vehicle, OA (2.5 μM) or NO2—OA (2.5 μM) for 1 h, followed by treatment of oxLDL (50 to 100 μg/ml) for the indicated times. (A, B) Nuclear (A) and cytoplasmic protein (B) fractions were isolated 1 h after oxLDL treatment and subjected to western blot with antibodies against p65, lamin a/c (nuclear marker) and GAPDH (cytosolic marker). Representative western blot images of three independent experiments are shown. (C) Quantification of the p65 nuclear to cytoplasmic ratio by image studio (normalized by the internal control, n=3). (D-F) Following 8 h of oxLDL treatment, levels of IL6, MCP1 and TNFα in the cell medium were measured by ELISA (n=4). (G) Real-time PCR quantification of gene expression levels of IL1b and Mmp9 in total mRNA extracted from the BMDMs. (C) Ordinary one-way ANOVA followed by Tukey's test was performed. As of (D-F), the basal level contains several non-detectable values, so ordinary one-way ANOVA followed by correction of FDR were performed for the oxLDL-treated groups only. Ordinary one-way ANOVA followed by Tukey's test was performed for (G). Data presented as mean±SEM. A p<0.05 for both the main test and post hoc test was considered statistically significant.
Mice suprarenal aortas were collected after the measurement of their diameter. Human aortic aneurysm samples were obtained from the Department of Cardiac Surgery at the University of Michigan. Samples from humans and mice were snap-frozen in liquid nitrogen for later processing. RNA from tissue was extracted using TRIzol (#15596018, Invitrogen). RNA from cells was isolated with the RNeasy Mini Kit (#74106, QIAGEN). SuperScript™ III First-Strand Synthesis System (#18080051, Invitrogen) was used to reverse-transcribe mRNA into cDNA. Gene expression was quantified in triplicates by quantitative real-time PCR (qPCR) using IQ SYBR Green Supermix (#1708882, Bio-Rad) with the indicated gene primers.

[4] = system: Vcam1, MCP1, Icam1 gene expression in suprarenal aorta; experiment: Real-time PCR gene expression in mouse suprarenal aorta; format: in vivo
Source text: FIG. 2. […] (A) Quantification of gene expression levels in the mice suprarenal aorta region by real-time PCR (n=3 to 4). (B, C) Serum cytokines levels measured by ELISA (n=8 to 11). (D) FACS of single cells isolated from the mice suprarenal aorta region. Each sample is the pool of cells from three mice (n=3). (E, F) Quantification of the percentage of CD45+ leukocytes and CD64+, CD11c+M1-like macrophages in total cells from the FACS analysis. Ordinary one-way ANOVA followed by Tukey's test was performed for (A), (E) and (F). For ELISA in (B) and (C), to avoid the effect of the non-detected data point, a non-parametric Kruskal-Wallis test followed by Dunn's multiple comparisons was performed by adding zero to the missing data point. Data presented as mean±SEM. A p<0.05 for both the main test and post hoc test was considered statistically significant.
Ten weeks old male C57BL/6J mice were purchased from The Jackson Laboratory. The murine AAA model induced by AngII/PCSK9 gain-of-function mutation is well-established. After acclimation for 1 week, mice were fed a western diet (TD.88137, Envigo) and intraperitoneally injected with 2×1011 genomic copies of AAV-PCSK9.D377Y (AAV serotype 8, Penn Vector Core). Two weeks later, each mouse was subcutaneously implanted with two osmotic pumps (Model #2004, Alzet). One was loaded with AngII (#H-1706, Bachem), releasing at a rate of 1,500ng/kg/min, while the other one was loaded with PEG-400, OA or NO2—OA at a delivery rate of 5 mg/kg/day for OA or NO2—OA. After 4-weeks infusion, mice were euthanized and the maximal outer diameter of the suprarenal aorta was assessed with a digital caliper by a third person blinded to the treatment. Suprarenal aortas with a maximal diameter ≥50% larger than standard size (≥1.2 mm) were considered as abdominal aortic aneurysms. […]
Mice suprarenal aortas were collected after the measurement of their diameter. […] Gene expression was quantified in triplicates by quantitative real-time PCR (qPCR) using IQ SYBR Green Supermix (#1708882, Bio-Rad) with the indicated gene primers.

[5] = system: p65 (NFκB); experiment: oxLDL-induced p65 nuclear translocation in BMDMs (western blot); format: cell-based, mouse; conditions: 2.5 μM pretreatment 1 h, oxLDL 50 μg/ml 1 h
Procedure: as §1, with “(C) Ordinary one-way ANOVA followed by Tukey's test was performed. As of (D-F), the basal level contains several non-detectable values, so ordinary one-way ANOVA followed by correction of FDR were performed for the oxLDL-treated groups only. Ordinary one-way ANOVA followed by Tukey's test was performed for (G). Data presented as mean±SEM. A p<0.05 for both the main test and post hoc test was considered statistically significant.” left out
Nuclear/cytoplasm protein extraction, co-Immunoprecipitation and immunoblotting NE-PER™ Nuclear and Cytoplasmic Extraction Reagents (#78835, ThermoFisher) were used for nuclear and cytoplasmic protein extraction. […] Membranes were blocked by 5% BSA and incubated with the primary antibody at 4° C. overnight followed by incubation with fluorescence conjugated secondary antibody for 1 h at room temperature. Band intensity was collected with the Odyssey® CLx Imaging System and quantified using Image Studio™ Lite.

SMILES: CCCCCCCCC(=CCCCCCCCC(=O)O)[N+](=O)[O-] [NO2—OA, 10-nitro-octadec-9-enoic acid]
- Nrf2-regulated genes and heat shock response in peripheral blood mononuclear cells ([1]; administration in humans): induces
- circulating interleukin 6 (IL6) level ([1]; human volunteers): decreased
- circulating monocyte chemoattractant protein 1 (MCP1) level ([1]; human volunteers): decreased
- safety in Phase 1 human study ([1]; within a therapeutic window 25-450 mg/day): safe
- PGE2-mediated protective effect against LPS-induced macrophage activation (expression of Tnf, Il6, Ccl4) [2]: does not suppress
- oxLDL-induced expression of Il1b [3]: significantly decreased
- oxLDL-induced expression of Mmp9 [3]: significantly decreased
- expression of intercellular adhesion molecule 1 (Icam1) ([4]; vs vehicle): not statistically significant
- expression of MCP1 gene ([4]; vs vehicle control): significantly decreased
- expression of vascular cell adhesion protein 1 (Vcam1) gene ([4]; vs vehicle control): significantly decreased
- p65 nuclear to cytoplasmic ratio [5]: 14.10±1.92

Reference: patent publication US12728111B2, “Electrophilic compounds and electrophilic prodrugs for treating aneurysm” (University of Pittsburgh—Of the Commonwealth System of …, priority 2020, dated 2026)
